Assay results as given in patent US20070128217A1 (priority 2003, published 2007).

Tests used:
[1] = tested on: antibodies in sera from SARS patients (sera 1a, 1b, 2, 6, 37, 62, London, SARS-yellow, SARS-green); type: binding, human; parameters: Binding of serum 6 to linear peptides of protein X1 of SARS-CoV Urbani / Binding of serum 37 to linear peptides of protein X1 of SARS-CoV Urbani / Binding of serum 6 to looped/cyclic peptide (PEPSCAN-ELISA) / Binding of serum 37 to looped/cyclic peptide (PEPSCAN-ELISA) / Binding of serum 37 to looped/cyclic peptides of protein X1 of SARS-CoV Urbani / Binding of serum 6 to linear peptides of protein X2 / Binding of serum 37 to linear peptides of protein X2 / Binding of serum 37 to looped/cyclic peptides of protein X2 of SARS-CoV Urbani / Binding of serum 6 to linear peptides of protein M of SARS-CoV Urbani / Binding of serum 37 to linear peptides of protein M of SARS-CoV Urbani / Binding of serum 6 to looped/cyclic peptides of protein M of SARS-CoV Urbani / Binding of serum 37 to looped/cyclic peptides of protein M of SARS-CoV Urbani / Binding of serum 6 to linear peptides of protein X3 of SARS-CoV Urbani / Binding of serum 37 to linear peptides of protein X3 of SARS-CoV Urbani / Binding of serum 37 to looped/cyclic peptides of protein X3 of SARS-CoV Urbani / Binding of serum 6 to linear peptides of protein X4 of SARS-CoV Urbani / Binding of serum 37 to linear peptides of protein X4 of SARS-CoV Urbani / Binding of serum 37 to looped/cyclic peptides of protein X4 of SARS-CoV Urbani / Binding of serum 6 to linear peptides of protein X5 of SARS-CoV Urbani / Binding of serum 37 to linear peptides of protein X5 of SARS-CoV Urbani / Binding of serum 37 to looped/cyclic peptides of protein X5 of SARS-CoV Urbani / Binding of serum 6 to linear peptides of protein N of SARS-CoV Urbani / Binding of serum 37 to linear peptides of protein N of SARS-CoV Urbani / Binding of serum 6 to linear peptide (PEPSCAN-ELISA) / Binding of serum 1a to looped/cyclic peptides of protein N of SARS-CoV Urbani / Binding of serum 1b to looped/cyclic peptides of protein N of SARS-CoV Urbani / Binding of serum 2 to looped/cyclic peptides of protein N of SARS-CoV Urbani / Binding of serum 6 to looped/cyclic peptides of protein N of SARS-CoV Urbani / Binding of serum 37 to looped/cyclic peptides of protein N of SARS-CoV Urbani / Binding of serum 62 to looped/cyclic peptides of protein N of SARS-CoV Urbani / Binding of serum London to looped/cyclic peptides of protein N of SARS-CoV Urbani / Binding of serum SARS-green to looped/cyclic peptides of protein N of SARS-CoV Urbani: unit not given here
[2] = tested on: rabbit serum obtained by immunizing a rabbit with the SARS-CoV strain Frankfurt 1; type: binding; parameters: Binding of a rabbit serum to linear peptides / Binding of a rabbit serum to looped peptides / Rabbit serum linear peptides / Rabbit serum looped peptides / Binding of a rabbit serum to linear peptides of protein N of SARS-CoV Urbani (Rabbit serum linear peptides) / Binding of a rabbit serum to looped/cyclic peptides of protein N of SARS-CoV Urbani (Rabbit serum looped peptides): unit not given here
[3] = tested on: control sera (pooled serum of ten healthy LUMC hospital workers; commercial negative donor pooled serum from the Dutch bloodbank); type: binding, human; parameters: Binding of Control serum LUMC to linear peptides / Binding of Control serum Blood-bank to linear peptides / Binding of Control serum LUMC to looped peptides / Binding of Control Serum Blood-Bank to Looped peptides / Binding of Control serum LUMC to linear peptides of the protein M of SARS-CoV Urbani / Binding of Control serum Blood-bank to linear peptides of the protein M of SARS-CoV Urbani / Binding of Control serum LUMC to looped peptides of the protein M of SARS-CoV Urbani / Binding of Control Serum Blood-Bank to Looped peptides of the protein M of SARS-CoV Urbani: unit not given here

In the case of QLRARSVSPKLFIRQ, the “Binding of serum 1a to linear peptides of protein X4 of SARS-CoV Urbani” value [1] is reported as 0.7, the “Binding of serum 1a to looped/cyclic peptides of protein X4 of SARS-CoV Urbani” value [1] is reported as 0.7 and the “Binding of serum 1b to linear peptides of protein X4 of SARS-CoV Urbani” value [1] is reported as 0.6. For the same sequence, the “Binding of serum 1b to looped/cyclic peptides of protein X4 of SARS-CoV Urbani” value [1] was 0.6, the “Binding of serum 2 to linear peptides of protein X4 of SARS-CoV Urbani” value [1] was 0.6 and the “Binding of serum 2 to looped/cyclic peptides of protein X4 of SARS-CoV Urbani” value [1] was 0.8. For the same sequence, the “Binding of serum 6 to linear peptides of protein X4 of SARS-CoV Urbani” value [1] was 0.9, the “Binding of serum 6 to looped/cyclic peptides of protein X4 of SARS-CoV Urbani” value [1] was 0.9 and the “Binding of serum 37 to linear peptides of protein X4 of SARS-CoV Urbani” value [1] was 0.7. For the same sequence, the “Binding of serum 37 to looped/cyclic peptides of protein X4 of SARS-CoV Urbani” value [1] was 0.6, the “Binding of serum 62 to linear peptides of protein X4 of SARS-CoV Urbani” value [1] was 0.7 and the “Binding of serum 62 to looped/cyclic peptides of protein X4 of SARS-CoV Urbani” value [1] was 0.6. For the same sequence, the “Binding of serum London to linear peptides of protein X4 of SARS-CoV Urbani” value [1] was 0.8, the “Binding of serum London to looped/cyclic peptides of protein X4 of SARS-CoV Urbani” value [1] was 0.4 and the “Binding of serum SARS-green to linear peptides of protein X4 of SARS-CoV Urbani” value [1] was 0.6. For the same sequence, the “Binding of serum SARS-green to looped/cyclic peptides of protein X4 of SARS-CoV Urbani” value [1] was 0.4, the “Binding of serum SARS-yellow to linear peptides of protein X4 of SARS-CoV Urbani” value [1] was 0.3 and the “Binding of serum SARS-yellow to looped/cyclic peptides of protein X4 of SARS-CoV Urbani” value [1] was 0.8. For the same sequence, the “Recognition of the peptide by the rabbit serum” value [2] was “recognized”, the “Binding of Control Serum Blood-Bank to Looped peptides” value [3] was 0.9 and the “Binding of Control serum Blood-bank to linear peptides” value [3] was 0.7. For the same sequence, the “Binding of Control serum LUMC to linear peptides” value [3] was 0.6 and the “Binding of Control serum LUMC to looped peptides” value [3] was 0.8.
WKCKSKNPLLYDANY was tested, and the “Binding of serum 1a to linear peptides of protein X1 of SARS-CoV Urbani” value [1] was 0.8, the “Binding of serum 1a to looped/cyclic peptide (PEPSCAN-ELISA)” value [1] was 0.6 and the “Binding of serum 1b to linear peptides of protein X1 of SARS-CoV Urbani” value [1] was 0.8. The “Binding of serum 1b to looped/cyclic peptide (PEPSCAN-ELISA)” value [1] was 0.5, the “Binding of serum 2 to linear peptides of protein X1 of SARS-CoV Urbani” value [1] was 0.6 and the “Binding of serum 2 to looped/cyclic peptide (PEPSCAN-ELISA)” value [1] was 0.4. For the same sequence, the “Binding of serum 6 to linear peptides of protein X1 of SARS-CoV Urbani” value [1] was 0.7, the “Binding of serum 6 to looped/cyclic peptide (PEPSCAN-ELISA)” value [1] was 0.3 and the “Binding of serum 37 to linear peptides of protein X1 of SARS-CoV Urbani” value [1] was 0.8. The “Binding of serum 37 to looped/cyclic peptide (PEPSCAN-ELISA)” value [1] was 0.6, the “Binding of serum 62 to linear peptides of protein X1 of SARS-CoV Urbani” value [1] was 0.7 and the “Binding of serum 62 to looped/cyclic peptide (PEPSCAN-ELISA)” value [1] was 0.6. For the same sequence, the “Binding of serum London to linear peptides of protein X1 of SARS-CoV Urbani” value [1] was 0.3, the “Binding of serum London to looped/cyclic peptide (PEPSCAN-ELISA)” value [1] was 0.2 and the “Binding of serum SARS-green to linear peptides of protein X1 of SARS-CoV Urbani” value [1] was 0.4. For the same sequence, the “Binding of serum SARS-green to looped/cyclic peptide (PEPSCAN-ELISA)” value [1] was 0.3, the “Binding of serum SARS-yellow to linear peptides of protein X1 of SARS-CoV Urbani” value [1] was 0.5 and the “Binding of serum SARS-yellow to looped/cyclic peptide (PEPSCAN-ELISA)” value [1] was 0.5. The “Binding of a rabbit serum to linear peptides” value [2] was 0.1, the “Binding of a rabbit serum to looped peptides” value [2] was 0.6 and the “Binding of Control Serum Blood-Bank to Looped peptides” value [3] was 0.6. For the same sequence, the “Binding of Control serum Blood-bank to linear peptides” value [3] was 0.7, the “Binding of Control serum LUMC to linear peptides” value [3] was 0.8 and the “Binding of Control serum LUMC to looped peptides” value [3] was 0.5.
KKVSTNLCTHSFRKK was tested, and the “Binding of serum 1a to looped/cyclic peptides of protein X2 of SARS-CoV Urbani” value [1] was 0.5, the “Binding of serum 1b to looped/cyclic peptides of protein X2 of SARS-CoV Urbani” value [1] was 0.3 and the “Binding of serum 2 to looped/cyclic peptides of protein X2 of SARS-CoV Urbani” value [1] was 0.7. For the same sequence, the “Binding of serum 6 to looped/cyclic peptides of protein X2 of SARS-CoV Urbani” value [1] was 0.5, the “Binding of serum 37 to looped/cyclic peptides of protein X2 of SARS-CoV Urbani” value [1] was 0.5 and the “Binding of serum 62 to looped/cyclic peptides of protein X2 of SARS-CoV Urbani” value [1] was 0.6. For the same sequence, the “Binding of serum London to looped/cyclic peptides of protein X2 of SARS-CoV Urbani” value [1] was 0.2, the “Binding of serum SARS-green to looped/cyclic peptides of protein X2 of SARS-CoV Urbani” value [1] was 0.3 and the “Binding of serum SARS-yellow to looped/cyclic peptides of protein X2 of SARS-CoV Urbani” value [1] was 0.5. The “Recognition of the peptide by sera of SARS-CoV infected individuals, and form (linear, looped/cyclic) in which it is recognized” value [1] was “recognized in linear form”, the “Binding of a rabbit serum to linear peptides” value [2] was 0.3 and the “Binding of a rabbit serum to looped peptides” value [2] was 0.1. For the same sequence, the “Binding of Control Serum Blood-Bank to Looped peptides” value [3] was 0.5, the “Binding of Control serum Blood-bank to linear peptides” value [3] was 0.7 and the “Binding of Control serum LUMC to linear peptides” value [3] was 0.4. The “Binding of Control serum LUMC to looped peptides” value [3] was 0.8.
